One data set concerns CaaD. Description: Inhibition of CaaD by the internal standard tartrate. The data set is classed as biochemical, Pseudomonas pavonaceae 170. As to conditions: at concentrations of 4 mM.
The target in data set [1] is T1, αY60W-CaaD (Pseudomonas pavonaceae, UniProt Q9EV84+Q9EV85, Q9EV85:Y61W).
T1 sequence (Q9EV85 2-76 Y61W): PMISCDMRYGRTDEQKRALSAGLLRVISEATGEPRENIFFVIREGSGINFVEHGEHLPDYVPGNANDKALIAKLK
T1 sequence (Q9EV84 2-71): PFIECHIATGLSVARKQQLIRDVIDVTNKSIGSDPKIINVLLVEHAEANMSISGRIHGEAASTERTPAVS
Briefly: Global fitting of kinetic data to the six-step model. The data set is classed as biochemical, Pseudomonas pavonaceae 170.

The target in data set [2] is T1, αY60W-CaaD. The note with it: competitive inhibition; 9 at 35–200 μM, bromide 0–50,000 μM.
Data set [3] concerns the target T1, αY60W-CaaD.
The next data set has as its system αL57W-CaaD. Briefly: Steady state activity assay. The note with it: αL57W mutant. Format: biochemical, Pseudomonas pavonaceae 170.
The target of data set [4] is T1, αY60W-CaaD. Description: Stopped-flow fluorescence binding of malonate semialdehyde. Details: species or system Pseudomonas pavonaceae 170.
The subject of the next data set is αM7W-CaaD. Format: biochemical. The note with it: αM7W-CaaD vs wild-type.
For data set [5], the target named is T1, αY60W-CaaD. Briefly: Stopped-flow fluorescence of the reaction with 9, conventional analysis. Format: biochemical, Pseudomonas pavonaceae 170.
Data set [6] has as its target T1, αY60W-CaaD. As to conditions: αY60W-CaaD vs wild-type.
The next data set concerns the target βI37W-CaaD (Pseudomonas pavonaceae, UniProt Q9EV84+Q9EV85, Q9EV84:I38W). Description: biochemical.
For the next data set, the target named is T2, Wild-type CaaD (Pseudomonas pavonaceae, UniProt Q9EV84+Q9EV85).
T2 sequence (Q9EV85 2-76): T1 sequence (Q9EV85 2-76 Y61W)
T2 sequence (Q9EV84 2-71): T1 sequence (Q9EV84 2-71)
Description: Rapid-quench burst experiment, bromide quantified by IC. The note with it: wild-type 400 μM; saturating 9; pH 8.1, 22 °C.

Data set [7] concerns the target T1, αY60W-CaaD. Described as above.
The subject of a further data set is O=C(O)/C=C/Br. Description: purified protein, by the assay type.
Substrate in data set [8]: O=C(O)/C=C/Br
Briefly: purified protein, by the assay type. The note with it: other: wild-type CaaD, 100 mM Na2HPO4 buffer pH 8.1, 22 °C.

The mark [9] stands for this setting: Table 2, αY60W 400 μM, saturating 9, pH 8.1, 22 °C.
[10] abbreviates: Table 3, enzyme concentration 200 μM, 9 at 10,000 μM.
The mark [11] stands for this setting: Table 3, enzyme concentration 400 μM, 9 at 10,000 μM.
Setting [12] is: Table 3, enzyme concentration 600 μM, 9 at 10,000 μM.
Setting [13] is: other: αM7W, 100 mM Na2HPO4 buffer pH 8.1, 22 °C, pH 8.1, 22.0 °C.
The mark [14] stands for this setting: other: using the numbers in Table 4 and Scheme 3.

These results are taken from publication PMC3518313 (Biochemistry, 2012).

Read-outs that look alike come from different tables or passages of the source. Some results are limits rather than exact numbers.

On to `O=C(O)C(O)C(O)C(=O)O` (centres unmarked) [Tartrate], for which the “inhibition of CaaD” value in the data set with CaaD is recorded as “does not inhibit”.
Regarding `Br` [bromide], the Kd – broadly, the free concentration of one partner at which half of the binding sites on the other are occupied at equilibrium, for simple one-to-one binding – at αY60W-CaaD [1] (read-out: Kd,Br, best fit, global fit, k5 held fixed at 200 s^−1) is 12.5 mM; on αY60W-CaaD [3] (read-out: Kd, Br-, fit by simulation, koff fixed at 200 s^−1), 12 mM; at αY60W-CaaD [3] (read-out: predicted Kd, saturation of the fluorescence signal, hyperbolic fit), 7.4 mM. The Ki (in general, a dissociation constant, usually derived from enzyme kinetics or from competition with a known ligand) on αY60W-CaaD [2] was about 10 mM. Moreover, the increase in fluorescence at αY60W-CaaD [3] (bromide bound to αY60W-CaaD) is ~ 14%. For the same molecule, on αY60W-CaaD [3] (fit by simulation), the “fluorescence factor for enzyme-bound bromide” value is listed as 1.17.
For the molecule `O=C(O)/C=C/Cl` [compound 2, trans-3-chloroacrylic acid], in the data set on αL57W-CaaD, the activity result is “no activity”.
Take `O=CCC(=O)O` [compound 4, malonate semialdehyde]: the Kd on αY60W-CaaD [4] (Kd (koff / kon), estimate from conventional kon and koff) was 1100 µM; at αY60W-CaaD [4] (Kd, 4, calculated from simulation kon and koff), about 600 µM; on αY60W-CaaD [4] (Kd, end-point fluorescence titration fit to Equation S2), 380 µM. At αY60W-CaaD [4] (fit by simulation), the “fluorescence factor for enzyme bound to 4” value is given as 1.14. In addition, the koff (usually a measure of how fast the partners let go of each other) on αY60W-CaaD [4] (read-out: koff, 4, conventional analysis, kobs vs [4], 250 ms) is 28 s⁻¹; at αY60W-CaaD [4] (read-out: koff, 4, fit by simulation (250 ms)), 17 s⁻¹. Besides, the “increase in the fluorescence signal” value on αY60W-CaaD [4] (upon mixing αY60W-CaaD with 4) came to 16%.
Consider `O=C(O)/C=C/Br` [compound 9, trans-3-bromoacrylate], for which the “decrease in kcat compared with wild-type” value in the data set on αM7W-CaaD was ~ 4 fold. Further, in the data set with αM7W-CaaD, the “decrease in kcat/Km compared with wild-type” value is given as 4 fold. Also, in the data set with αL57W-CaaD, the activity entry is given as “no activity”. Also, at αY60W-CaaD [5] (fit to Eq. 3), the “net forward rate kfor” value is listed as ~ 8 s^−1. The “apparent reverse rate krev” value on αY60W-CaaD [5] (fit to Eq. 3, equal to kcat) is given as ~ 3 s^−1. Besides, the “maximum rate of the fluorescence change” value at αY60W-CaaD [5] (single exponential fit, first 1 s) is reported as ~ 10 s^−1. Besides, at αY60W-CaaD [1] (global fit to Scheme 4, fractional change in enzyme fluorescence), the “f/f0 (fluorescence scaling factor), best fit” value is reported as 0.710. In addition, the “k3, best fit” value at αY60W-CaaD [1] (global fit, formation of E*PQ, k-3 fixed at 1 s^−1) was 9.6 s⁻¹. The “decrease in Km compared with wild-type” value on αY60W-CaaD [6] is listed as ~ 1.5 fold. The molecule further showed a Kd on βI37W-CaaD of over 40 mM. The “Burst Amplitude (A)” value is reported as 0.8 at Wild-type CaaD; 0.9 on αY60W-CaaD [7] (setting [9]); 0.85 on αY60W-CaaD [7] (setting [10]); 0.9 at αY60W-CaaD [7] (setting [11]); 0.94 at αY60W-CaaD [7] (setting [12]). For the same molecule, the kburst at Wild-type CaaD was 90 ± 20 ^c s^−1; on αY60W-CaaD [7] (setting [9]), 86 ± 10 s⁻¹; at αY60W-CaaD [7] (setting [10]), 43 ± 3 ^c s^−1; at αY60W-CaaD [7] (setting [11]), 86 ± 20 s⁻¹; at αY60W-CaaD [7] (setting [12]), 107 ± 15 s⁻¹. Also, the “kcat (calculated from the burst equation)” value at Wild-type CaaD is 3 ± 0.5 s⁻¹; at αY60W-CaaD [7] (setting [9]) it was 2.5 ± 0.5 s⁻¹; on αY60W-CaaD [7] (setting [10]), 1.8 ± 0.5 s⁻¹; on αY60W-CaaD [7] (setting [11]), 2.5 ± 0.5 s⁻¹; on αY60W-CaaD [7] (setting [12]), 2.8 ± 0.5 s⁻¹. For the same molecule, the steady state turnover at αY60W-CaaD [7] (summary of Tables 2 and 3 (CaaD and αY60W-CaaD), 9 at 10 mM) turned out to be 3 s⁻¹.
For the molecule “αM7W-CaaD (Pseudomonas pavonaceae; Q9EV85:M8W)”, in the data set on O=C(O)/C=C/Br (setting [13]), the Km was found to be 120 ± 10 OM; the kcat (in general, the number of substrate molecules converted per active site and unit of time at saturation) was 0.6 s⁻¹; the kcat/Km (commonly the turnover number divided by the Michaelis constant) turned out to be 3000 M⁻¹ s⁻¹.
With “αY60W-CaaD (Pseudomonas pavonaceae; Q9EV85:Y61W)”, in the data set with O=C(O)/C=C/Br (setting [14]), the Km was 95 µM and the kcat is 2.2 s⁻¹. Moreover, the Km with O=C(O)/C=C/Br (other: αY60W, 100 mM Na2HPO4 buffer pH 8.1, 22 °C, pH 8.1, 22.0 °C) was found to be 70 ± 3.5 OM.

B1: Wild-type CaaD (Pseudomonas pavonaceae) (protein)
chain 1: T1 sequence (Q9EV85 2-76 Y61W)
chain 2: T1 sequence (Q9EV84 2-71)
As to B1, in data set [8], the Km was found to be 120 ± 10 OM, the kcat is 2.5 s⁻¹ and the kcat/Km is 13000 M⁻¹ s⁻¹.
